Like-named read-outs stand apart in the source and are kept apart here.

One experiment deals with T1, human V2 receptor (Homo sapiens, UniProt P30518).
T1 construct: expressed in transfected cells; host or cells: CHO K1 cells expressing firefly luciferase under a CRE-responsive promoter
Nature of the experiment: Cellular in vitro assay for vasopressin receptor activity (V2, CRE-luciferase). The experiment is classed as cell-based. Particulars: CHO cell line with human V2 receptor, [Arg8]-vasopressin at EC50; values are for the prodrug as such; read-out: IC50 hV2. The protocol:
B-1. Cellular In Vitro Assay for Determining Vasopressin Receptor Activity
The identification of agonists and antagonists of the V1a and V2 vasopressin receptors from humans, rats and dogs as well as the quantification of the activity of the compounds of the invention is carried out using recombinant cell lines. These cell lines originally derive from a hamster's ovary epithelial cell (Chinese Hamster Ovary, CHO K1, ATCC: American Type Culture Collection, Manassas, Va. 20108, USA). The test cell lines constitutively express the human, rat or dog V1a or V2 receptors. In case of the Gaq-coupled V1a receptors, cells are also stably transfected with a modified form of the calcium-sensitive photoproteins aequorin (human and rat V1a) or obelin (dog V1a), which, after reconstitution with the cofactor coelenterazine, emit light when there are increases in free calcium concentrations [Rizzuto R, Simpson A W, Brini M, Pozzan T, Nature 358, 325-327 (1992); Illarionov B A, Bondar V S, Illarionova V A, Vysotski E S, Gene 153 (2), 273-274 (1995)]. The resulting vasopressin receptor cells react to stimulation of the recombinantly expressed Via receptors by intracellular release of calcium ions, which can be quantified by the resulting photoprotein luminescence. The Gs-coupled V2 receptors are stably transfected into cell lines expressing the gene for firefly luciferase under control of a CRE-responsible promoter. Activation of V2 receptors induces the activation of the CRE-responsive promoter via cAMP increase, thereby inducing the expression of firefly luciferase. The light emitted by photoproteins of V1a cell lines as well as the light emitted by firefly luciferase of V2 cell lines corresponds to the activation or inhibition of the respective vasopressin receptor. The bioluminescence of the cell lines is detected using a suitable luminometer [Milligan G, Marshall F, Rees S, Trends in Pharmacological Sciences 17, 235-237 (1996)].
Vasopressin V2 Receptor Cell Lines:
On the day before the assay, the cells are plated out in culture medium (DMEM/F12, 2% FCS, 2 mM glutamine, 10 mM HEPES) in 384-well microtiter plates and kept in a cell incubator (96% humidity, 5% v/v CO2, 37C). On the day of the assay, test compounds in various concentrations and the agonist [Arg^8]-vasopressin at EC50 concentration are added together to the wells, and plates are incubated for 3 hours in a cell incubator. Upon addition of the cell lysis reagent Triton™ and the substrate luciferin, luminescence of firefly luciferase is measured in a luminometer.
Table 1A below lists individual IC50 values for the compounds of the invention (including racemic mixtures as well as separated enantiomers) that were obtained from cell lines transfected with the human V1a or V2 receptor. This means these IC50 values are the values for the prodrug and not for the underlying respective drug as the prodrug is mainly stable under the assay conditions.

Another experiment concerns the target T2, human V1a receptor (Homo sapiens, UniProt P37288).
T2 construct: expressed in transfected cells; host or cells: CHO K1 (Chinese hamster ovary), also stably transfected with a modified aequorin
Nature of the experiment: Cellular in vitro assay for verification of prodrug conversion into drug (with/without alkaline phosphatase). The experiment is classed as cell-based. Particulars: human V1a CHO cells. The protocol:
B-4. Cellular In Vitro Assay for Verification of Prodrug Conversion into Drug
To verify the conversion of prodrugs into the respective drugs, the prodrugs are incubated with and without alkaline phosphatase. Cleavage of the phosphate moiety by alkaline phosphatase converts the prodrug into the underlying respective drug [Coleman J. E., Annu. Rev. Biophys. Biomol. Struct. 1992, 21, 441-483]. As prodrug and underlying respective drug show different IC50 values, the value of the prodrug after alkaline phosphatase treatment resembles the IC50 of the respective drug. The determination of IC50 values of compounds of the invention at the human V1a receptor is carried out using a recombinant cell line. The cell line originally derives from a hamster's ovary epithelial cell (Chinese Hamster Ovary, CHO K1, ATCC: American Type Culture Collection, Manassas, Va. 20108, USA). The test cell line constitutively expresses the human V1a receptor. Cells are also stably transfected with a modified form of the calcium-sensitive photoprotein aequorin which, after reconstitution with the cofactor coelenterazine, emits light upon increase in free calcium concentration [Rizzuto R, Simpson A W, Brini M, Pozzan T, Nature 358, 325-327 (1992); Illarionov B A, Bondar V S, Illarionova V A, Vysotski E S, Gene 153 (2), 273-274 (1995)]. The resulting vasopressin receptor cell reacts to stimulation of the recombinantly expressed V1a receptor by intracellular release of calcium ions, which can be quantified by the resulting luminescence of photoprotein. The bioluminescence of the cell line is detected using a suitable luminometer [Milligan G, Marshall F, Rees S, Trends in Pharmacological Sciences 17, 235-237 (1996)].
On the day before the assay, the cells are seeded in culture medium (DMEM/F12, 2% FCS, 2 mM glutamine, 10 mM HEPES, 5 μg/ml coelenterazine) in 384-well microtiter plates and kept in a cell incubator (96% humidity, 5% v/v CO2, 37C). On the day of the assay, 100 μl of test compounds at a concentration of 100 μM are incubated for 15 minutes with 500 units alkaline phosphatase at 37° C. in tyrode buffer (20 mM HEPES, 130 mM NaCl, 5 mM KCl, 5 mM NaHCO3, 2 mM MgCl2, pH 7,4). After incubation compounds are immediately diluted and placed for 10 minutes at 37° C. on the before seeded V1a cells. For detection of antagonistic activity of the compounds [Arg^8]-vasopressin at EC50 concentration is added and the resulting light signal is measured immediately in a luminometer.

Setting [1] is: pre-incubation 15 min with 500 units alkaline phosphatase at 37° C., read-out: IC50 with AP.
Where [2] appears, read: without alkaline phosphatase, read-out: IC50 without AP.

T2 sequence (P37288 whole entry): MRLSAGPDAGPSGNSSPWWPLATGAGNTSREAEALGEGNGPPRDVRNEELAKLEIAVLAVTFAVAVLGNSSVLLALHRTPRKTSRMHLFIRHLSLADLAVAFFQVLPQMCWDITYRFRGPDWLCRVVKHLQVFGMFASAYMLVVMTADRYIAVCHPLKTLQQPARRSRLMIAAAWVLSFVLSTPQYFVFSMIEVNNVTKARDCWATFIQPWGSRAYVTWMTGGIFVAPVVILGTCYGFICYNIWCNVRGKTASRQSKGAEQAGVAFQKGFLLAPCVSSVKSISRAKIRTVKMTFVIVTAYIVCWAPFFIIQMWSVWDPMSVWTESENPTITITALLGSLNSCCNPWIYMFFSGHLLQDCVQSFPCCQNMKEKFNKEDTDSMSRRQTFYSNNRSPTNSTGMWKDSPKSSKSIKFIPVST
T1 sequence (P30518 whole entry): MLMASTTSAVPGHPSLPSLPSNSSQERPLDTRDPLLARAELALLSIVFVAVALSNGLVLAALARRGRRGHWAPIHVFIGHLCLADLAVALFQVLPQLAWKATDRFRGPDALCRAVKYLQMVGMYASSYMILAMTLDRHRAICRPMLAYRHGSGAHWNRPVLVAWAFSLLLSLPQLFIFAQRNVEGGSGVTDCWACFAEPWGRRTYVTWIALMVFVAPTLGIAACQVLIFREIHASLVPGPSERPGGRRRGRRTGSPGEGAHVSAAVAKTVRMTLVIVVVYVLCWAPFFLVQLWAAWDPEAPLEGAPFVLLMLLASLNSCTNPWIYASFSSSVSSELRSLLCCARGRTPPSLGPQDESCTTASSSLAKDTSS

As to `NC(=O)c1nc(Cn2nc(-c3ccc(Cl)cc3)n(C[C@H](OP(=O)(O)O)C(F)(F)F)c2=O)nn1-c1ccccc1C(F)(F)F` [Example 10, (2S)-3-[1-({5-Carbamoyl-1-[2-(trifluoromethyl)phenyl]-1H-1,2,4-triazol-3-yl}methyl)-3-(4-chlorophenyl)-5-oxo-1,5-dihydro-4H-1,2,4-triazol-4-yl]-1,1,1-trifluoropropan-2-yl Dihydrogen Phosphate], the half-maximal inhibitory concentration (IC50) turned out to be 47 nM at human V2 receptor, 1.3 nM on human V1a receptor (setting [1]) and 11 nM at human V1a receptor (setting [2]).
In the case of `NC(=O)c1nc(Cn2nc(-c3ccc(Cl)cc3)n(C[C@H](O)C(F)(F)F)c2=O)nn1-c1ncccc1C(F)(F)F` [Example 4A, 3-({3-(4-Chlorophenyl)-5-oxo-4-[(2S)-3,3,3-trifluoro-2-hydroxypropyl]-4,5-dihydro-1H-1,2,4-triazol-1-yl}methyl)-1-[3-(trifluoromethyl)pyridin-2-yl]-1H-1,2,4-triazole-5-carboxamide], the IC50 at human V1a receptor (setting [1]) turned out to be 1.35 nM; on human V1a receptor (setting [2]), 1.25 nM.
With `NC(=O)c1nc(Cn2nc(-c3ccc(Cl)cc3)n(C[C@H](OP(=O)(O)O)C(F)(F)F)c2=O)nn1-c1ncccc1C(F)(F)F` [Example 1, (2S)-3-[1-({5-Carbamoyl-1-[3-(trifluoromethyl)pyridin-2-yl]-1H-1,2,4-triazol-3-yl}methyl)-3-(4-chlorophenyl)-5-oxo-1,5-dihydro-4H-1,2,4-triazol-4-yl]-1,1,1-trifluoropropan-2-yl Dihydrogen Phosphate], the IC50 at human V2 receptor was found to be 193 nM; on human V1a receptor (setting [1]) it was 1.45 nM; on human V1a receptor (setting [2]), 13.1 nM.
Consider `NC(=O)c1nc(Cn2nc(-c3ccc(Cl)cc3)n(C[C@H](OP(=O)(O)O)C(F)(F)F)c2=O)nn1-c1ncccc1Cl` [Example 17, (2S)-3-[1-{[5-Carbamoyl-1-(3-chloropyridin-2-yl)-1H-1,2,4-triazol-3-yl]methyl}-3-(4-chloro-phenyl)-5-oxo-1,5-dihydro-4H-1,2,4-triazol-4-yl]-1,1,1-trifluoropropan-2-yl Dihydrogen Phosphate], for which the IC50 on human V2 receptor was found to be 130 nM; on human V1a receptor (setting [1]), 1.03 nM; on human V1a receptor (setting [2]), 9.45 nM.

As usually defined, the IC50 is the concentration needed to halve the response being measured.
